Laboratory results: patent US7138361B2, “Herbicidal heterocycles” (E. I. du Pont de Nemours and Company, priority 2000, dated 2006)

How the values were obtained:
Format in all cases: in vivo
Sunflower = assay: Test C preemergence; conditions: scale 0 to 100, 0 no effect, 100 complete control
Nightshade = assay: Test C preemergence; conditions: Rate 500 g/ha, visual evaluation after 12 to 14 days
[1] = test system: morning glory (Ipomoea hederacea); assay: Test B postemergence; conditions: 13 to 15 days
Method in brief: (§1)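 Preemergence: seeds planted and treated with test chemicals in non-phytotoxic solvent with surfactant; postemergence on plants 2–18 cm (1- to 4-leaf stage). Kept in greenhouse 13–15 days, then visually rated against controls on a 0 (no effect) to 100 (complete control) scale.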

[2] = test system: pigweed (Amaranthus retroflexus); assay: Test B postemergence; conditions: 13 to 15 days
Method in brief: as §1

wild oat (Avena fatua) = assay: Test B postemergence; conditions: 13 to 15 days
Method in brief: as §1

[3] = test system: giant foxtail (Setaria faberii); assay: Test B postemergence; conditions: 13 to 15 days
Method in brief: as §1

[4] = test system: barnyardgrass (Echinochloa crus-galli); assay: Test B postemergence; conditions: 13 to 15 days
Method in brief: as §1

[5] = test system: crabgrass (Digitaria sanguinalis); assay: Test B postemergence; conditions: 13 to 15 days
Method in brief: as §1

[6] = test system: velvetleaf (Abutilon theophrasti); assay: Test B postemergence; conditions: 13 to 15 days
Method in brief: as §1

[7] = test system: lambsquarters (Chenopodium album); assay: Test B postemergence; conditions: 13 to 15 days
Method in brief: as §1

corn (Zea mays) [8] = assay: Test B postemergence; conditions: 13 to 15 days
Method in brief: as §1

[9] = test system: wheat (Triticum aestivum); assay: Test B postemergence; conditions: 13 to 15 days
Method in brief: as §1

[10] = test system: Surinam grass (Brachiaria decumbens); assay: Test B postemergence; conditions: 13 to 15 days
Method in brief: as §1

[11] = test system: blackgrass (Alopecurus myosuroides); assay: Test B postemergence; conditions: 13 to 15 days
Method in brief: as §1

[12] = test system: cocklebur (Xanthium strumarium); assay: Test B postemergence; conditions: 13 to 15 days
Method in brief: as §1

[13] = test system: morning glory (Ipomoea hederacea); assay: Test B preemergence
Method in brief: as §1

[14] = test system: pigweed (Amaranthus retroflexus); assay: Test B preemergence
Method in brief: as §1

rice (Oryza saliva) = assay: Test B preemergence
Method in brief: as §1

[15] = test system: giant foxtail (Setaria faberii); assay: Test B preemergence
Method in brief: as §1

[16] = test system: crabgrass (Digitaria sanguinalis); assay: Test B preemergence
Method in brief: as §1

[17] = test system: velvetleaf (Abutilon theophrasti); assay: Test B preemergence
Method in brief: as §1

[18] = test system: lambsquarters (Chenopodium album); assay: Test B preemergence
Method in brief: as §1

[19] = test system: Surinam grass (Brachiaria decumbens); assay: Test B preemergence
Method in brief: as §1

[20] = test system: cocklebur (Xanthium strumarium); assay: Test B preemergence
Method in brief: as §1

[21] = test system: barnyardgrass (Echinochloa crus-galli); assay: Test B preemergence
Method in brief: as §1

corn (Zea mays) [22] = assay: Test B preemergence
Method in brief: as §1

[23] = Rate 125 g/ha, scale 0 (no effect) to 100 (complete control)
[24] = Rate 500 g/ha, scale 0 to 100, 0 is no effect, 100 is complete control
[25] = Preemergence, Rate 500 g/ha, scale 0 to 100, 0 no effect, 100 complete control
[26] = preemergence, Rate 125 g/ha, scale of 0 to 100 where 0 is no effect and 100 is complete control, 13 to 15 days

## CC(C)Oc1cccc(N2CCC(n3ccc(C(C)(C)C)n3)C2=O)c1 (centres unmarked) [Compound 70]
Sunflower; Rate 125 g/ha
  Plant response rating, Sunflower: 20
Sunflower; Rate 250 g/ha
  Plant response rating, Sunflower: 60
Nightshade
  Plant response rating (0 to 100), Nightshade: 70
[1]; [23]
  Plant response rating, Morningglory: 30
[1]; [24]
  Plant response rating, Morningglory: 30
[2]; [23]
  Plant response rating, Pigweed: 0
[2]; [24]
  Plant response rating, Pigweed: 0
Wild oat (Avena fatua); [23]
  Plant response rating, Wild Oat: 0
Wild oat (Avena fatua); [24]
  Plant response rating, Wild Oat: 0
[3]; [23]
  Plant response rating, Foxtail, Giant: 0
[3]; [24]
  Plant response rating, Foxtail, Giant: 0
[4]; [23]
  Plant response rating, Barnyardgrass: 0
[4]; [24]
  Plant response rating, Barnyardgrass: 0
[5]; [23]
  Plant response rating, Crabgrass: 0
[5]; [24]
  Plant response rating, Crabgrass: 0
[6]; [23]
  Plant response rating, Velvetleaf: 0
[6]; [24]
  Plant response rating, Velvetleaf: 0
[7]; [23]
  Plant response rating, Lambsquarters: 0
[7]; [24]
  Plant response rating, Lambsquarters: 0
Corn (Zea mays) [8]; [23]
  Plant response rating, Corn: 0
Corn (Zea mays) [8]; [24]
  Plant response rating, Corn: 0
[9]; [23]
  Plant response rating, Wheat: 0
[9]; [24]
  Plant response rating, Wheat: 0
[10]; [23]
  Plant response rating, Surinam grass: 0
[10]; [24]
  Plant response rating, Surinam grass: 0
[11]; [23]
  Plant response rating, Blackgrass: 0
[11]; [24]
  Plant response rating, Blackgrass: 0
[12]; [23]
  Plant response rating, Cocklebur: 0
[12]; [24]
  Plant response rating, Cocklebur: 0
[13]; [25]
  Plant response rating, Morningglory: 80
[13]; [26]
  Plant response rating, Morningglory: 20
[14]; [25]
  Plant response rating, Pigweed: 100
[14]; [26]
  Plant response rating, Pigweed: 100
Rice (Oryza saliva); [25]
  Plant response rating, Rice: 30
Rice (Oryza saliva); [26]
  Plant response rating, Rice: 30
[15]; [25]
  Plant response rating, Foxtail, Giant: 100
[15]; [26]
  Plant response rating, Foxtail, Giant: 90
[16]; [25]
  Plant response rating, Crabgrass: 100
[16]; [26]
  Plant response rating, Crabgrass: 90
[17]; [25]
  Plant response rating, Velvetleaf: 0
[17]; [26]
  Plant response rating, Velvetleaf: 0
[18]; [25]
  Plant response rating, Lambsquarters: 100
[18]; [26]
  Plant response rating, Lambsquarters: 100
[19]; [25]
  Plant response rating, Surinam grass: 0
[19]; [26]
  Plant response rating, Surinam grass: 0
[20]; [25]
  Plant response rating, Cocklebur: 0
[20]; [26]
  Plant response rating, Cocklebur: 0

## CCC(CC)c1ccn(C2CCN(c3cccc(OC(C)C)c3)C2=O)n1 (centres unmarked) [Compound 84]
Sunflower; Rate 250 g/ha
  Plant response rating, Sunflower: 30
Nightshade
  Plant response rating (0 to 100), Nightshade: 100
[1]; [23]
  Plant response rating, Morningglory: 10
[1]; [24]
  Plant response rating, Morningglory: 30
[2]; [23]
  Plant response rating, Pigweed: 60
[2]; [24]
  Plant response rating, Pigweed: 70
Wild oat (Avena fatua); [23]
  Plant response rating, Wild Oat: 0
Wild oat (Avena fatua); [24]
  Plant response rating, Wild Oat: 10
[3]; [23]
  Plant response rating, Foxtail, Giant: 0
[3]; [24]
  Plant response rating, Foxtail, Giant: 10
[4]; [23]
  Plant response rating, Barnyardgrass: 0
[4]; [24]
  Plant response rating, Barnyardgrass: 80
[5]; [23]
  Plant response rating, Crabgrass: 0
[5]; [24]
  Plant response rating, Crabgrass: 10
[6]; [23]
  Plant response rating, Velvetleaf: 0
[6]; [24]
  Plant response rating, Velvetleaf: 10
[7]; [23]
  Plant response rating, Lambsquarters: 50
[7]; [24]
  Plant response rating, Lambsquarters: 60
Corn (Zea mays) [8]; [23]
  Plant response rating, Corn: 0
Corn (Zea mays) [8]; [24]
  Plant response rating, Corn: 0
[9]; [23]
  Plant response rating, Wheat: 0
[9]; [24]
  Plant response rating, Wheat: 0
[10]; [23]
  Plant response rating, Surinam grass: 0
[10]; [24]
  Plant response rating, Surinam grass: 10
[11]; [23]
  Plant response rating, Blackgrass: 0
[11]; [24]
  Plant response rating, Blackgrass: 0
[12]; [23]
  Plant response rating, Cocklebur: 10
[12]; [24]
  Plant response rating, Cocklebur: 20
[13]; [25]
  Plant response rating, Morningglory: 0
[13]; [26]
  Plant response rating, Morningglory: 0
[14]; [25]
  Plant response rating, Pigweed: 100
[14]; [26]
  Plant response rating, Pigweed: 100
Rice (Oryza saliva); [25]
  Plant response rating, Rice: 100
Rice (Oryza saliva); [26]
  Plant response rating, Rice: 0
[15]; [25]
  Plant response rating, Foxtail, Giant: 100
[15]; [26]
  Plant response rating, Foxtail, Giant: 100
[21]; [25]
  Plant response rating, Barnyardgrass: 100
[21]; [26]
  Plant response rating, Barnyardgrass: 100
[16]; [25]
  Plant response rating, Crabgrass: 100
[16]; [26]
  Plant response rating, Crabgrass: 100
[17]; [25]
  Plant response rating, Velvetleaf: 0
[17]; [26]
  Plant response rating, Velvetleaf: 0
Corn (Zea mays) [22]; [25]
  Plant response rating, Corn: 20
Corn (Zea mays) [22]; [26]
  Plant response rating, Corn: 0
[19]; [25]
  Plant response rating, Surinam grass: 100
[19]; [26]
  Plant response rating, Surinam grass: 80
[20]; [25]
  Plant response rating, Cocklebur: 0
[20]; [26]
  Plant response rating, Cocklebur: 0
